Source: ChEMBL document CHEMBL5331068, “Briarane-type diterpenoids, the inhibitors of osteoclast formation by interrupting Keap1-Nrf2 interaction and activating Nrf2 pathway” (Eur J Med Chem, 2023)
Calls of active or inactive are those of the source. The calls are words filed in the database; no cut-off is given here.

Assays:
[1] = system: BMDM; assay: Anti-osteoclastogenesis activity in C57BL/6 mouse BMDM cells assessed as inhibition of RANKL-induced osteoclastogenesis at 10 uM incubated for 7 days in the presence of M-CSF by TRAP-staining based microscopic analysis relative to control; type: functional; details: for inhibition at 10 µM: C57BL/6, BMDM, 168 h, time 7 day
[2] = Cytotoxicity against C57BL/6 mouse BMDM cells incubated for 48 hrs by MTT assay; type: toxicity, cell-based; details: BMDM cells (bone marrow-derived macrophages)

Row | SMILES | inhibition at 10 µM [1] | CC50 at 48 h [2] | inhibition ([1]; time 7.0 day)
1 | C=C1CC[C@H](OC(C)=O)[C@]2(C)[C@@H](OC(C)=O)C[C@@H](OC(C)=O)/C(C(=O)OC)=C\[C@@H]3OC(=O)[C@H](C)[C@@]3(O)[C@@H](OC(C)=O)[C@@H]12 | 49.4% | > 50 µM | –
2 | C=C1CC[C@H](OC(C)=O)[C@]2(C)[C@@H](OC(C)=O)CC/C(C)=C\[C@@H]3OC(=O)[C@H](C)[C@@]3(O)[C@@H](OC(C)=O)[C@@H]12 | 64.5% | > 50 µM | –
3 | C=C1CC[C@H](OC(C)=O)[C@]2(C)[C@@H](OC(C)=O)C[C@@H](OC(C)=O)/C(CO)=C\[C@@H]3OC(=O)[C@H](C)[C@@]3(O)[C@@H](OC(C)=O)[C@@H]12 | 40.7% | > 50 µM | –
4 | C=C1CC[C@H](OC(C)=O)[C@]2(C)[C@@H](OC(C)=O)C[C@@H](OC(C)=O)/C(COC(=O)CC(C)C)=C\[C@@H]3OC(=O)[C@H](C)[C@@]3(O)[C@@H](OC(C)=O)[C@@H]12 | 91.3% | > 50 µM | –
5 | CC(=O)O[C@H]1CC[C@]2(CO2)[C@@H]2[C@H](OC(C)=O)[C@@]3(O)[C@H](/C=C(/C)[C@H](OC(C)=O)C[C@H](OC(C)=O)[C@@]12C)OC(=O)[C@@H]3C [11ALPHA,20ALPHA-EPOXYJUNCEELLOLIDE] | 58.1% | > 50 µM | –
6 | C=C1/C=C/[C@H](OC(C)=O)[C@@]2(C)[C@@H](OC(C)=O)C[C@@H](OC(=O)CC(C)C)[C@]3(CO3)[C@@H]2[C@H](OC(C)=O)[C@]2(O)[C@@H](C)C(=O)O[C@H]2[C@H]1Cl [GEMMACOLIDE I] | 62.2% | > 50 µM | –
7 | C=C1/C=C/[C@H](OC(C)=O)[C@@]2(C)[C@@H](OC(C)=O)C[C@@H](OC(C)=O)[C@]3(CO3)[C@@H]2[C@H](OC(C)=O)[C@]2(O)[C@@H](C)C(=O)O[C@H]2[C@H]1Cl [GEMMACOLIDE H] | 13.1% | > 50 µM | –
8 | CC(=O)O[C@H]1/C=C\C(CO)=C/[C@@H]2OC(=O)[C@H](C)[C@@]2(O)[C@@H](OC(C)=O)[C@H]2[C@@]3(CO3)[C@H](OC(C)=O)C[C@H](OC(C)=O)[C@]12C | – | < 10 µM | –
9 | C=C1[C@H](OC(C)=O)C[C@H](OC(C)=O)[C@@]2(C)[C@@H](OC(C)=O)C[C@@H](OC(C)=O)[C@]3(CO3)[C@@H]2[C@H](OC(C)=O)[C@]2(O)[C@@H](C)C(=O)O[C@H]2[C@H]1Cl | 80.8% | > 50 µM | –
10 | C=C1[C@H]2O[C@]3([C@H](C)C(=O)O[C@H]3[C@H]1Cl)[C@@H](OC(C)=O)[C@H]1[C@]3(CC[C@H](OC(C)=O)[C@]1(C)[C@@H](OC(C)=O)[C@@H]2OC(C)=O)CO3 | 12.2% | > 50 µM | –
11 | C=C1[C@H](Cl)[C@@H]2OC(=O)[C@H](C)[C@]23O[C@]1(O)C[C@H](OC(C)=O)[C@@]1(C)[C@@H](OC(C)=O)C[C@@H](OC(=O)CC(C)C)[C@]2(CO2)[C@@H]1[C@@H]3OC(C)=O | – | > 50 µM | inactive
12 | C=C1CC[C@H](OC(=O)CC(C)C)[C@]2(C)[C@@H](OC(C)=O)C[C@@H](OC(C)=O)/C(C)=C\[C@@H]3OC(=O)[C@H](C)[C@@]3(O)[C@@H](OC(C)=O)[C@@H]12 | 68% | > 50 µM | –
13 | C=C1CC[C@H](OC(C)=O)[C@]2(C)[C@@H](OC(C)=O)C[C@@H](OC(C)=O)/C(C)=C\[C@@H]3OC(=O)[C@H](C)[C@@]3(O)[C@@H](OC(C)=O)[C@@H]12 | 58.7% | > 50 µM | –
14 | CC(=O)O[C@H]1/C=C\C(COC(=O)CC(C)C)=C/[C@@H]2OC(=O)[C@H](C)[C@@]2(O)[C@@H](OC(C)=O)[C@H]2[C@@]3(CO3)[C@H](OC(=O)CC(C)C)C[C@H](OC(C)=O)[C@]12C | 25% | > 50 µM | –
15 | CC(=O)O[C@H]1/C=C\C(CO)=C/[C@@H]2OC(=O)[C@H](C)[C@@]2(O)[C@@H](OC(C)=O)[C@H]2[C@@]3(CO3)[C@H](OC(=O)CC(C)C)C[C@H](OC(C)=O)[C@]12C | – | < 10 µM | –
